Molecular target: T1, Ape1-His6 (Campylobacter jejuni, UniProt A0A0H3PJ52)
T1 construct: gene CJJ81176_0638; predicted 21-residue signal peptide removed; C-terminal His6 tag (pET28a(+)), expressed in E. coli BL21(DE3)
Test: absorbance at […] nm, p-nitrophenol release
Type: biochemical
Settings: 2 mM pNPAc; 50 mM sodium phosphate pH 6.5; room temperature

T1 sequence (A0A0H3PJ52 entry or part of it): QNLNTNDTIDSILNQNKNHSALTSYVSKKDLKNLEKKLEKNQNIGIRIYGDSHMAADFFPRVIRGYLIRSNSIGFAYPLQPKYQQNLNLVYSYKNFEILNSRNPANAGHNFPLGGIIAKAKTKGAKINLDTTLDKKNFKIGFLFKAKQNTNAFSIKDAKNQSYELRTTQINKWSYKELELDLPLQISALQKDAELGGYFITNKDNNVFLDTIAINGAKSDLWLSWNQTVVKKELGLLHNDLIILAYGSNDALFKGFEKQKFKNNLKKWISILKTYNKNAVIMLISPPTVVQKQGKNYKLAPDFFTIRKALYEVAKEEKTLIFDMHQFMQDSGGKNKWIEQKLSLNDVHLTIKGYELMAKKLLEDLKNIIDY

CC(=O)Oc1ccc([N+](=O)[O-])cc1 [p-nitrophenyl acetate]
absorbance at 405 nm, p-nitrophenol release: The specific activity of purified Ape1 was determined using p-nitrophenylacetate (pNPAc)
